Test results reported in patent US10280198B2, “Therapeutic agents for reducing parathyroid hormone levels” (KAI PHARMACEUTICALS, INC., priority 2009, dated 2019).
Counter-ions that a name gives are not always drawn. Like-named read-outs stand apart in the source and are kept apart here. Square brackets hold non-standard residues; d marks the D form. Peptide text beside a SMILES is read from it.

Experiments:
[1] = target: T1, human calcium-sensing receptor (CaSR) (Homo sapiens, UniProt P41180); assay: In vitro cell assay in HEK-293 expressing the human calcium-sensing receptor (IP1 production); format: cell-based; details: for potency to activate the human CaSR in vitro: HEK-293 cell assay; for EC50: Table 5, IP1 production in HEK293 cells expressing human CaSR, eight concentrations in duplicate, read-out: EC50 in CaSR in vitro assay
T1 construct: expressed in transfected cells; host or cells: HEK 293T cells, transiently transfected (lipofectamine 2000); in some cases HEK293 cells stably transfected
T1 sequence (P41180 20-1078): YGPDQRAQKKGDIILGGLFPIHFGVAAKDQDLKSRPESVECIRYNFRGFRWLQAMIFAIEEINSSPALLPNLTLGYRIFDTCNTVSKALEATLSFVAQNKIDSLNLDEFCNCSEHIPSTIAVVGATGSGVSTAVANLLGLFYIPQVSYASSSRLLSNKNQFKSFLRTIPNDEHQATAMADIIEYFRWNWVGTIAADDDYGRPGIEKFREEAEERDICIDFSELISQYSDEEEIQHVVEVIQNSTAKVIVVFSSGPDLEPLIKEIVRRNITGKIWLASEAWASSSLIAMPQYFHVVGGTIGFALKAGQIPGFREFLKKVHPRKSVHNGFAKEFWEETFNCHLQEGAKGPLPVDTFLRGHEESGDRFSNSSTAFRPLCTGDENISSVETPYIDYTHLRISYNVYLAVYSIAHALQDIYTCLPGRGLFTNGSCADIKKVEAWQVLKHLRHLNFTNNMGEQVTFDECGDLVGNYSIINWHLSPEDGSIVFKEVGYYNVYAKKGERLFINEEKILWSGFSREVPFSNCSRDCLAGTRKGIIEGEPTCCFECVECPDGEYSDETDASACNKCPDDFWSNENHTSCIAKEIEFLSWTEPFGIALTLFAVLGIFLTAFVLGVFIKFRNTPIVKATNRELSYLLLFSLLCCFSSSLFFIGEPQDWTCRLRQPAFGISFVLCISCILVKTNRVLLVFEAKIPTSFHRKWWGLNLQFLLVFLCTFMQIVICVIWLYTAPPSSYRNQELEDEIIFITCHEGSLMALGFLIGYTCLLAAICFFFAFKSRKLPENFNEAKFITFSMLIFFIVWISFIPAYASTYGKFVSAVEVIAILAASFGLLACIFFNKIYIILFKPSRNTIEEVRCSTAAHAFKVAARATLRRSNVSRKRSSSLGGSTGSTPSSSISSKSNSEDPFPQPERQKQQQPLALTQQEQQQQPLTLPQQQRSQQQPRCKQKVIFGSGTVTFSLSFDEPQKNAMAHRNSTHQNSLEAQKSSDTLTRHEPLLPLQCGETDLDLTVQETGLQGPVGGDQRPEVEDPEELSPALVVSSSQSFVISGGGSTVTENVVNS
Summary of the method: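 HEK293 cells transfected with human CaSR exposed to peptides at eight concentrations in duplicate (top 1 mM or 300 μM, ½-log dilutions) at 37 °C for 1.5 h.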

plasma histamine [2] = assay: In vivo histamine release after IV bolus in normal Sprague Dawley rats (Example 6, FIG. 3 and 4)
plasma PTH [3] = assay: 1K1C rat model of acute renal insufficiency, plasma PTH after dosing; format: in vivo; details: 1K1C rats, oral 30 mg/kg
plasma PTH [4] = assay: In vivo PTH lowering after IV bolus in isoflurane-anesthetized normal Sprague Dawley rats; set-up: species or system rat; details: Table 2; for % PTH reduction of baseline at 1 hour post IV administration of 0.5 mg/kg compound: isoflurane-anesthetized normal rats, 0.5 mg/kg IV; for 0.5 mg/kg IV bolus % PTH AUC of saline control: normal rats, AUC 1-4 h
Summary of the method: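 Peptides were given as a 0.5 mg/kg IV bolus to normal Sprague Dawley rats kept under isoflurane throughout, with saline bolus controls.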

[5] = tested on: rat peritoneal mast cells; assay: In vitro histamine induction in rat peritoneal mast cells; format: cell-based
Summary of the method: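 Mast cells from peritoneal lavage of Sprague Dawley rats were incubated with compound at 10 μM for 15 min at 37 °C in HBSS + 25 mM HEPES pH 7.4. Supernatant histamine measured by EIA; response expressed as fold change versus pre-incubation levels.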

plasma histamine [6] = details: rat
Procedure: For the in vivo evaluation of histamine release, compounds were dosed in isoflurane-anesthetized normal rats at 2 mg/kg by IV bolus (administered over less than one minute). Plasma histamine was measured 5 minutes after compound administration (Cayman histamine EIA #589651).

plasma histamine [7] = details: rat, in vivo, iv
plasma PTH [8] = assay: 1K1C rat model of acute renal insufficiency, plasma PTH after dosing; format: in vivo; details: 1K1C rats, 3 mg/kg 30-minute IV infusion, FIG. 1
From the text: A rat model of acute renal insufficiency (also referred to as the 1K1C model) was developed to simulate the pathology of SHPT associated with end stage renal disease. […] The development of this model allowed for the further characterization of described compounds in the context of a subject with renal dysfunction and elevated PTH. Typical baseline PTH levels in this model averaged ˜450 pg/mL.
The ensuing ischemia/reperfusion (I/R) damage to the remaining kidney results in significant necrosis and renal failure. Serum creatinine levels were elevated for over 24-48 hours following I/R insult (data not shown). […] By 48 hours post-I/R, plasma PTH levels were elevated to ˜450 pg/mL (˜5 fold increase) and in some instances reach as high as ˜1200 pg/mL. This reproducible increase in serum creatinine and PTH provided a robust model that mimics the physiology seen ESRD patients.
The protocol used in this study is as follows. Male Sprague Dawley rats were purchased from Charles River Laboratories (Hollister, Calif.; requested purchase weight 250-275 g). […] Animals were maintained in a temperature-controlled environment with a constant 12 hours light/12 hours dark cycle and free access to food and water at all times. All experimental procedures with animals were performed according to IACUC guidelines.
General anesthesia was induced and maintained by intraperitoneal (IP) injection of sodium pentobarbital (5.2%, 0.4 mL/rat). For animals that received 45 minutes of renal ischemia an additional IP injection of sodium pentobarbital (5.2%, 0.1 mL/rat) was given to maintain the anesthetic plane. Blood sampling for PTH measurements following administration of compounds in normal rats was done under continuous isoflurane anesthesia.
For model development studies, the left femoral vein was cannulated with a PE-10 tube for blood drawing. Both kidneys were exposed via a laparotomy. A right nephrectomy was performed after the right renal pedicle and ureter were ligated with double 2-0 silk sutures. After confirmation of non-bleeding in the right pedicle, the left renal artery was carefully dissected and clamped with a micro vascular clip to induce left renal global ischemia. Renal ischemia was confirmed by observation of a global white-grey color change (blanching). The abdominal incision was temporarily covered with gauze to help maintain the temperature of the abdominal organs. After 45 minutes, the designated period of ischemia, the clip was removed and left renal artery flow was considered restored upon observation of a global restoration of red color. The abdominal incision was closed in layers with 2-0 silk sutures. The animal was then recovered from anesthesia. Physiological parameters including body temperature (36-37.5° C.) and body weight were measured throughout the procedure. Body temperature was monitored and maintained using a heat pad rectal probe feedback system.
Approximately 48 hours after the 1K1C surgery (I/R injury), animals were dosed with various compounds to measure effects on plasma PTH and calcium. In most cases, test articles were administered by IV infusion (infusion time 5, 10 or 30 minutes) although in some studies compounds were administered by IV bolus or subcutaneous (SC) bolus injection. For drug administration and blood draws, animals were anesthetized with isoflurane.

EC50 [1] [µM] | Histamine in vitro Fold change of non-treated at 10 uM [5] [fold] | Histamine response in vivo Fold change from pre-dose levels 5′ post injection 2 mg/kg IV bolus (plasma histamine [6]) [fold] | Compound | % PTH reduction of baseline at 1 hour post IV administration of 0.5 mg/kg compound (plasma PTH [4]) [%] | 0.5 mg/kg IV bolus % PTH AUC of saline control (plasma PTH [4]) [%] | other results
 |  |  | C[C@@H](NCCCc1cccc(C(F)(F)F)c1)c1cccc2ccccc12 [cinacalcet, Cinacalcet hydrochloride] |  |  | duration of PTH lowering (plasma PTH [3]): up to 6 hours; lowering of PTH (plasma PTH [3]): approximately 50%
 | 1.5 | 0.8 | CC(=O)N[C@H](CS)C(=O)N[C@H](CCCNC(=N)N)C(=O)N[C@H](C)C(=O)N[C@H](CCCNC(=N)N)C(=O)N[C@H](CCCNC(=N)N)C(=O)N[C@H](C)C(=O)N[C@H](CCCNC(=N)N)C(N)=O [SEQ ID NO: 23, Ac-crarrar-NH2] (Ac-[dC][dR][dA][dR][dR][dA][dR]-NH2) | 0 | 43 | 
 | 1.1 | 1.0 | CC(=O)N[C@H](CS)C(=O)N[C@H](CCCNC(=N)N)C(=O)N[C@H](C)C(=O)N[C@H](CCCNC(=N)N)C(=O)N[C@H](CCCNC(=N)N)C(=O)N[C@H](CCCNC(=N)N)C(=O)N[C@H](C)C(N)=O [SEQ ID NO: 20, Ac-crarrra-NH2] (Ac-[dC][dR][dA][dR][dR][dR][dA]-NH2) | 45 | 69 | 
 | 0.7 | 0.9 | Ac-c(C)rrarar-NH2 [SEQ ID NO: 28] | 0 | 16 | 
 |  | 0.9 | CC(=O)N[C@H](CS)C(=O)N[C@H](CCCNC(=N)N)C(=O)N[C@H](CCCNC(=N)N)C(=O)N[C@H](C)C(=O)N[C@H](CCCNC(=N)N)C(=O)N[C@H](C)C(=O)N[C@H](CCCNC(=N)N)C(N)=O [SEQ ID NO: 25, Ac-crrarar-NH2] (Ac-[dC][dR][dR][dA][dR][dA][dR]-NH2) |  |  | 
13 | 2.5 | 1.0 | CC(=O)N[C@H](CS)C(=O)N[C@H](C)C(=O)N[C@H](CCCNC(=N)N)C(=O)N[C@H](C)C(=O)N[C@H](CCCNC(=N)N)C(=O)N[C@H](CCCNC(=N)N)C(=O)N[C@H](CCCNC(=N)N)C(N)=O [SEQ ID NO: 15, Ac-cararrr-NH2] (Ac-[dC][dA][dR][dA][dR][dR][dR]-NH2) | 75 | 116 | histamine response after IV bolus (plasma histamine [7]): lack of a histamine response; potency to activate the human CaSR in vitro [1]: significantly reduced potency in vitro in activating the CaSR
2.5 |  |  | CC(=O)N[C@H](CS)C(=O)N[C@H](CCCNC(=N)N)C(=O)N[C@H](CCCNC(=N)N)C(=O)N[C@H](CCCNC(=N)N)C(=O)N[C@H](CCCNC(=N)N)C(=O)N[C@H](CCCNC(=N)N)C(N)=O [SEQ ID NO: 5, Ac-crrrrr-NH2] (Ac-[dC][dR][dR][dR][dR][dR]-NH2) |  |  | mean PTH reduction at the 24 hour time point (plasma PTH [8]): 60%
 | 1.3 | 0.9 | CC(=O)N[C@H](CS)C(=O)N[C@H](C)C(=O)N[C@H](CCCNC(=N)N)C(=O)N[C@H](CCCNC(=N)N)C(=O)N[C@H](CCCNC(=N)N)C(=O)N[C@H](CCCNC(=N)N)C(=O)N[C@H](C)C(N)=O [SEQ ID NO: 19, Ac-carrrra-NH2] (Ac-[dC][dA][dR][dR][dR][dR][dA]-NH2) | 29 | 72 | 

Compound | EC50 [1] [µM] | Histamine in vitro Fold change of non-treated at 10 uM [5] [fold] | Histamine response in vivo Fold change from pre-dose levels 5′ post injection 2 mg/kg IV bolus (plasma histamine [6]) [fold] | % PTH reduction of baseline at 1 hour post IV administration of 0.5 mg/kg compound (plasma PTH [4]) [%] | 0.5 mg/kg IV bolus % PTH AUC of saline control (plasma PTH [4]) [%] | other results
CC(=O)N[C@H](CS)C(=O)N[C@H](CCCNC(=N)N)C(=O)N[C@H](CCCNC(=N)N)C(=O)N[C@H](CCCNC(=N)N)C(=O)N[C@H](CCCNC(=N)N)C(=O)N[C@H](CCCNC(=N)N)C(=O)N[C@H](CCCNC(=N)N)C(=O)N[C@H](CCCNC(=N)N)C(=O)N[C@H](CCCNC(=N)N)C(N)=O [SEQ ID NO: 41, Ac-crrrrrrrr-NH2] | 0.3 |  |  |  |  | potency to activate the human CaSR in vitro [1]: more potent at activating the CaSR; histamine fold over baseline (plasma histamine [2]; equimolar IV bolus 2.1 μmol/kg, normal rats, 5 minutes after dosing, FIG. 3): 6-9 fold; histamine response after IV bolus (plasma histamine [2]; rats, IV bolus): largest induction of histamine
CC(=O)N[C@H](CSSC[C@H](N)C(=O)O)C(=O)N[C@H](C)C(=O)N[C@H](CCCNC(=N)N)C(=O)N[C@H](CCCNC(=N)N)C(=O)N[C@H](CCCNC(=N)N)C(=O)N[C@H](C)C(=O)N[C@H](CCCNC(=N)N)C(N)=O [SEQ ID NO: 3, Ac-c(C)arrrar-NH2] |  | 0.6 | 0.9 |  |  | fold increase in histamine level relative to pre-dose (plasma histamine [2]; 3 mg/kg IV bolus, isoflurane-anesthetized Sprague Dawley rats, FIG. 4): no apparent histamine response
